Structures are written as SMILES. Counter-ions that a name gives are not always drawn.

The subject of the first assay is ionophore-induced LTB4 production.
Assay: not given
Conditions: oral administration; cited from earlier work.
Turning to `CN(CCCOc1ccc(Cc2ccccc2)cc1)CCC(=O)O.Cl` [SC57461], the “inhibition of ionophore-induced LTB4 production in rat peritoneum in vivo” value is recorded as “inhibition of ionophore-induced LTB4 production”.

The next assay has as its system colitis symptoms.
Assay: not given
Conditions: eight weeks of treatment, spontaneous colitis; cited from earlier work.
As for `CN(CCCOc1ccc(Cc2ccccc2)cc1)CCC(=O)O.Cl` [SC57461], the “colitis symptoms in a primate model” value is “significantly improved colitis symptoms”.

The subject of the next assay is ionophore-induced LTB4 production.
Assay: not given
Particulars: oral administration; cited from earlier work. The source holds these as a separate data set.
As for `CN(CCCOc1ccc(Cc2ccccc2)cc1)CCC(=O)O.Cl` [SC57461], the “inhibition of ionophore-induced LTB4 production in mouse blood ex vivo” value is reported as “inhibition of ionophore-induced LTB4 production”.

The next assay addresses T1, purified recombinant human LTA4 hydrolase (hLTA4H) (Homo sapiens, UniProt P09960).
T1 construct: A human LTA4 hydrolase full-length cDNA clone (NM_000895) was purchased from OriGene Technologies; own knowledge: pDEST17 adds an N-terminal 6xHis; made in house; host or cells: Escherichia coli BL21-AI
T1 sequence (P09960 1-611): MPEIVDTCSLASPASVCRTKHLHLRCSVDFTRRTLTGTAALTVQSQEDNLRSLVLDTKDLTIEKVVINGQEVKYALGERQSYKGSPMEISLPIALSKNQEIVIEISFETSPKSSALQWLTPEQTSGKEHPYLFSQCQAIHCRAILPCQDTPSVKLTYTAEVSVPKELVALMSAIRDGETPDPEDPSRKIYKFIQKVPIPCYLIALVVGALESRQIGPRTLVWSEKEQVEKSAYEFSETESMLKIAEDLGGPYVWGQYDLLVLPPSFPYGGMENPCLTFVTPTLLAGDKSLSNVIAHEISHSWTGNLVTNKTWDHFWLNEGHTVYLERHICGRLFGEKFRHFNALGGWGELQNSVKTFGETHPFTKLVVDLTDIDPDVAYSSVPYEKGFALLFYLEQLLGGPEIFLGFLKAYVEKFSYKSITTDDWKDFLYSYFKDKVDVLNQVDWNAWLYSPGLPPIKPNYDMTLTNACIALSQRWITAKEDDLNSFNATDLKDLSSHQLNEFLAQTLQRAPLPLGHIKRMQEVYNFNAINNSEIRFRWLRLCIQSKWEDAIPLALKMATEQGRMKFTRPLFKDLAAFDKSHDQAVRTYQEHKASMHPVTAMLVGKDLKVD
As to the kind of experiment: In vitro assay testing inhibitory activity against purified recombinant human LTA4 hydrolase. It is filed as biochemical. Particulars: 200 nM recombinant enzyme, 2 μM LTA4, LTB4 measured by LC-MS/MS. The text has this: (1) In Vitro Assay Testing Inhibitory Activity Against Purified Recombinant Human LTA4 Hydroase:
The gene was amplified by polmerase chain reaction and transferred via pDONR201 into the bacterial expression vector pDEST17 by recombination (both plasmids from Invitrogen, Carlsbad, Calif.). The resulting construct was transformed into Escherichia coli BL21-AI (Invitrogen), and expression was induced by chemical induction with arabinose. The recombinant enzyme was purified by chromatography on a FPLC system (Amersham Biosciences, Uppsala, Sweden) using immobilized metal affinity chromatography (Ni-NTA Superflow, Qiagen, Hilden, Germany) and anion exchange chromatography (MonoQ HR 10/10, Amersham Biosciences).
The compounds of the invention were incubated in a series of dilutions with 200 nM of recombinant enzyme in assay buffer (100 mM Tris-HCl, 100 mM NaCl, 5 mg/ml fatty-acid free BSA, 10% DMSO, pH 8.0) for 10 min at room temperature to allow binding between LTA4 hydrolase and the inhibitors. LTA4 was prepared by alkaline hydrolysis of LTA4 methyl ester (Biomol, Plymouth Meeting, Pa., or Cayman Chemicals, Ann Arbor, Mich.). A solution of 10 μg of the ester was dried under a nitrogen stream and redissolved in 60 μl of a solution of 80% aceton and 20% 0.25 M NaOH.
After incubation for 40 min at room temperature the resulting approximately 500 μM tock of LTA4 was kept at −80° C. for no more than a few days prior to use.
Immediately before the assay, LTA4 was diluted to a concentration of 10 μM in assay buffer (without DMSO) and added to the reaction mixture to a final concentration of 2 μM to initiate the enzyme reaction. […] The samples were then kept at 4° C. over night to complete protein precipitation and centrifuged for 15 min at 1800 g. LTB4 formed was measured by LC-MS/MS using LTB4-d4 as an internal standard and an external LTB4 standard (Biomol) as reference.
For the molecule `O=C(O)CCCN1CCN(c2ccc(Nc3ccccc3)cc2)CC1` [Example 3, 4-[4-(4-phenylamino-phenyl)-piperazin-1-yl]-butyric acid sodium salt], the IC50 lay within 5 to 20 µM.
Still for that read-out and setting: under `c1ccc(Cc2ccc(N3CCNCC3)cc2)cc1` [Example 4, 1-(4-Benzyl-phenyl)-piperazine hydrochloride] stands less than 5 µM; under `COC(=O)CCCN1CCN(c2ccc(Cc3ccccc3)cc2)CC1` [Example 5, 4-[4-(4-Benzyl-phenyl)-piperazin-1-yl]-butyric acid methyl ester], less than 5 µM.
With `O=C(O)CCCN1CCN(c2ccc(Cc3ccccc3)cc2)CC1` [Example 6, 4-[4-(4-Benzyl-phenyl)-piperazin-1-yl]-butyric acid sodium salt], the concentration for half-maximal inhibition (IC50) was less than 5 µM.
On the same count and under the same terms, then `O=C(O)CCN1CCN(c2ccc(Cc3ccccc3)cc2)CC1` [Example 7, 3-[4-(4-Benzyl-phenyl)-piperazin-1-yl]-propionic acid sodium salt], with less than 5 µM; and `NC1CCN(c2ccc(Oc3ccccc3)cc2)CC1` [Example 12, 1-(4-Phenoxy-phenyl)-piperidin-4-ylamine hydrochloride], with 5 to 20 µM; and `Ic1ccc(Oc2ccc(N3CCNCC3)cc2)cc1` [Example 14, 1-[4-(4-Iodo-phenoxy)-phenyl]-piperazine hydrochloride], with less than 5 µM.
The same measure, in the same setting: under `O=C(O)CCCN1CCN(c2ccc(Oc3ccc(I)cc3)cc2)CC1` [Example 15, 4-{4-[4-(4-Iodo-phenoxy)-phenyl]-piperazin-1-yl]-butyric acid sodium salt] stands less than 5 µM; under `O=C(O)CCN1CCN(c2ccc(Oc3ccc(-c4ccsc4)cc3)cc2)CC1` [Example 16, 3-{4[4-(4-Thiophen-3-yl-phenoxy)-phenyl]-piperazin-1-yl}-propionic acid sodium salt], less than 5 µM.
On to `COc1ccc(Oc2ccc(N3CCNCC3)cc2)cc1` [Example 17, 1-[4-(4-Methoxy-phenoxy)-phenyl]-piperazine], for which the IC50 was in the range of 5 to 20 µM.
As to `Cc1ccc(Oc2ccc(N3CCNCC3)cc2)cc1` [Example 18, 1-(4-p-Tolyloxy-phenyl]-piperazine], the IC50 was less than 5 µM.
Still for that read-out and setting: then `FC(F)(F)c1ccc(Oc2ccc(N3CCNCC3)cc2)cc1` [Example 20, 1-[4-(4-Trifluoromethyl-phenoxy)-phenyl]-piperazine], with less than 5 µM.
Take `CC(=O)N1CCN(c2ccc(Oc3ccccc3)cc2)CC1` [Example 21, 1-[4-(4-Phenoxy-phenyl)-piperazin-1-yl]-ethanone]: the IC50 is less than 5 µM.
Still for that read-out and setting: under `c1cc(-c2ccc(Oc3ccc(N4CCNCC4)cc3)cc2)cs1` [Example 23, 1-[4-(4-Thiophen-3yl-phenoxy)-phenyl]-piperazine hydrochloride] stands less than 5 µM; under `Ic1ccc(Oc2ccc(N3CCOCC3)cc2)cc1` [Example 24, 4-[4-(4-Iodo-phenoxy)-phenyl]-morpholine], less than 5 µM.
In the case of `c1cc(-c2ccc(Oc3ccc(N4CCOCC4)cc3)cc2)cs1` [Example 25, 4-[4-(4-Thiophen-3-yl-phenoxy)-phenyl]-morpholine], the IC50 was less than 5 µM.
On to `Clc1ccc(-c2ccc(Oc3ccc(N4CCNCC4)cc3)cc2)s1` [Example 26, hydrochloride], for which the IC50 is 5 to 20 µM.

By IC50 is commonly meant the concentration needed to halve the response being measured.

(Values after patent publication US7750012B2, “Biaryl nitrogen-heterocycle inhibitors of LTA4H for treating inflammation” (deCODE genetics ehf, priority 2005, dated 2010).)
